Data reported in patent EP1808178A1, “Composition comprising Astragalus radix extracts for treating prostate cancer” (Golden Biotechnology Corp., priority 2005, dated 2007).

System: human prostate cancer cell lines- LNCaP cells
Assay: In vitro mode adjunctive treatment activity assay with Taxol (MTT colorimetric cell survival)
Format: cell-based
Conditions: PCF1 concentration 0.0 µL/mL, i.e. Taxol (2nM) alone
Description: Utilize in vitro filter mode for human prostate cancer cell lines- LNCaP cells. Where human prostate cancer cell lines - LNCaP cells is being cultured in the culture medium which is supplemented by fetalbovine serum for 24 hours, and process cells by Taxol for 72 hours, and then change the culture medium so as to culture it in a new culture medium by adding assay sample for 72 hours, afterwards evaluate the cell survival rate by MIT colorimetric analysis method.
? The assay analysis of the compositions in accordance with the present invention in effect for suppressing the growth of human prostate cancer cells, wherein it is necessary to compute the cell survival rate for cells in each well of96-well microplate, afterwards evaluate the cancer cells survival rate by MIT colorimetric analysis method.
? MTT colorimetric analysis method: MTT is a kind of tertrazolium salt, with a full name of 3-[4, 5-Dimenthylthialzol-2-yl] 2, 5-diphenyltetrazoliumbromide, which is the yellow dye, capable to be absorbed by live cells and also be reduced to blue color formazan by succinate-tetrazoliumreductase in mitochondrion, which is commonly used for filtering the affection for matters to the growth and proliferation of cells.

SMILES: CC(=O)O[C@H]1C(=O)[C@@]2(C)[C@H]([C@H](OC(=O)c3ccccc3)[C@]3(O)C[C@H](OC(=O)[C@H](O)[C@@H](NC(=O)c4ccccc4)c4ccccc4)C(C)=C1C3(C)C)[C@]1(OC(C)=O)CO[C@@H]1C[C@@H]2O [Taxol]
- Cell Survival Rate (%): 56.4%
